{"source": "patent US20240165244A1", "about": "(Prelude Therapeutics Incorporated, priority 2022, published 2024)", "key": {"[1]": {"tested_on": "SMARCA4 mutated cancer cells", "conditions": "Vangamudi et al. Cancer Res 2015; cited from earlier work"}, "SMARCA2": {"biological_target": "T1, SMARCA2 (Homo sapiens, UniProt P51531)", "T1 construct": "SMARCA2-HiBiT knock-in Hela monoclonal cell (CS302366); host or cells: HeLa monoclonal cells with heterozygous HiBiT knock-in at the endogenous SMARCA2 locus", "T1 sequence (P51531 whole entry)": "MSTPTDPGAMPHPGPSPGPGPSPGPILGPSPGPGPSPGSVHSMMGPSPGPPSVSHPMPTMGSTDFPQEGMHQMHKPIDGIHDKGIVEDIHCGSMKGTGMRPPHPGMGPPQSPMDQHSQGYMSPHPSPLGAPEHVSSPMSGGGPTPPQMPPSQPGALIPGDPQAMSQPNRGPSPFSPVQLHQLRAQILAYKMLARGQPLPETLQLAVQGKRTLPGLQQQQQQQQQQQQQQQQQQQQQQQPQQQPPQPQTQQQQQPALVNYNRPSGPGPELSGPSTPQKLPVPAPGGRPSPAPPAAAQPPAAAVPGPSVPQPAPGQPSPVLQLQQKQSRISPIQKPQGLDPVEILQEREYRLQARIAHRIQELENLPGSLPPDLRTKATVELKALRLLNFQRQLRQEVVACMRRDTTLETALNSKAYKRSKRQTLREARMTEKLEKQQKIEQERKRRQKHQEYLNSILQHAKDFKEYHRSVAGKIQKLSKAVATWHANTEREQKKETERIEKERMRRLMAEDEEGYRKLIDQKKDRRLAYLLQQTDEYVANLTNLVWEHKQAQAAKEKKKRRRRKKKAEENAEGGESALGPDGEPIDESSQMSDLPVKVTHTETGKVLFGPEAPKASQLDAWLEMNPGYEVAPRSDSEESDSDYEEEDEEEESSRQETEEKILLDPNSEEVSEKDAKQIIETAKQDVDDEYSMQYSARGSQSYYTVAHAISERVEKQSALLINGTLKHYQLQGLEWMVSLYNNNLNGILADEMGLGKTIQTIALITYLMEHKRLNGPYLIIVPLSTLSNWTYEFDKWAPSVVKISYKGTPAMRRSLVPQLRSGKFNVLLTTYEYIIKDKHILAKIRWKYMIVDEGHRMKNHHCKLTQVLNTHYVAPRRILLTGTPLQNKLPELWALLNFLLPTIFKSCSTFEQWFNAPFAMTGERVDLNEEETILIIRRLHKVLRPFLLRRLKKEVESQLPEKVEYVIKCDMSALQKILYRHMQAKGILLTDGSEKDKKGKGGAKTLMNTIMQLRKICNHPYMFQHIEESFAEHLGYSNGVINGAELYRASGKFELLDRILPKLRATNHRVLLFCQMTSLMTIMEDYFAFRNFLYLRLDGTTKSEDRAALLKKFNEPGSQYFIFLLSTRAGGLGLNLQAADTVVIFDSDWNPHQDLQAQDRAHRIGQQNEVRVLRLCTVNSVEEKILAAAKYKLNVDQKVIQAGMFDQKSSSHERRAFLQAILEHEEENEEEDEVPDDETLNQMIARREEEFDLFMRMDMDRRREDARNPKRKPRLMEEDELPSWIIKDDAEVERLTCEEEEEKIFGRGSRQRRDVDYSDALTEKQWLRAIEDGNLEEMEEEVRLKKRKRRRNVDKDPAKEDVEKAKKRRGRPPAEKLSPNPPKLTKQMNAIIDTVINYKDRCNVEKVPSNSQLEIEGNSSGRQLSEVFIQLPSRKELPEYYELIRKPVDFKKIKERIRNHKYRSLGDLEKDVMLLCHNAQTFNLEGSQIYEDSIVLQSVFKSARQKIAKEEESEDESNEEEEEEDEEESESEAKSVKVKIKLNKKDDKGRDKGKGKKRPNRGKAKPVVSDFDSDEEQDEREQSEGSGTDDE", "assay": "SMARCA2 HiBiT degradation assay in HeLa cells", "format": "cell-based", "conditions": "18 hours, highest concentration 10 μM", "method_in_brief": "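HeLa cells carrying a heterozygous C-terminal HiBiT knock-in on SMARCA2 were seeded at 2500 cells/well. They were treated with 3-fold dilution series, top concentration 10 μM, for 18 h at 37 °C. Remaining SMARCA2-HiBiT was measured by Nano-Glo HiBiT lytic luminescence after 30-60 min at RT, followed by curve fitting.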"}, "SMARCA4": {"biological_target": "T2, SMARCA4 (Homo sapiens, UniProt P51532)", "T2 construct": "SMARCA4-HiBiT knock-in Hela monoclonal cell (CS3023226); host or cells: HeLa monoclonal cells with heterozygous HiBiT knock-in at the endogenous SMARCA4 locus", "T2 sequence (P51532 whole entry)": "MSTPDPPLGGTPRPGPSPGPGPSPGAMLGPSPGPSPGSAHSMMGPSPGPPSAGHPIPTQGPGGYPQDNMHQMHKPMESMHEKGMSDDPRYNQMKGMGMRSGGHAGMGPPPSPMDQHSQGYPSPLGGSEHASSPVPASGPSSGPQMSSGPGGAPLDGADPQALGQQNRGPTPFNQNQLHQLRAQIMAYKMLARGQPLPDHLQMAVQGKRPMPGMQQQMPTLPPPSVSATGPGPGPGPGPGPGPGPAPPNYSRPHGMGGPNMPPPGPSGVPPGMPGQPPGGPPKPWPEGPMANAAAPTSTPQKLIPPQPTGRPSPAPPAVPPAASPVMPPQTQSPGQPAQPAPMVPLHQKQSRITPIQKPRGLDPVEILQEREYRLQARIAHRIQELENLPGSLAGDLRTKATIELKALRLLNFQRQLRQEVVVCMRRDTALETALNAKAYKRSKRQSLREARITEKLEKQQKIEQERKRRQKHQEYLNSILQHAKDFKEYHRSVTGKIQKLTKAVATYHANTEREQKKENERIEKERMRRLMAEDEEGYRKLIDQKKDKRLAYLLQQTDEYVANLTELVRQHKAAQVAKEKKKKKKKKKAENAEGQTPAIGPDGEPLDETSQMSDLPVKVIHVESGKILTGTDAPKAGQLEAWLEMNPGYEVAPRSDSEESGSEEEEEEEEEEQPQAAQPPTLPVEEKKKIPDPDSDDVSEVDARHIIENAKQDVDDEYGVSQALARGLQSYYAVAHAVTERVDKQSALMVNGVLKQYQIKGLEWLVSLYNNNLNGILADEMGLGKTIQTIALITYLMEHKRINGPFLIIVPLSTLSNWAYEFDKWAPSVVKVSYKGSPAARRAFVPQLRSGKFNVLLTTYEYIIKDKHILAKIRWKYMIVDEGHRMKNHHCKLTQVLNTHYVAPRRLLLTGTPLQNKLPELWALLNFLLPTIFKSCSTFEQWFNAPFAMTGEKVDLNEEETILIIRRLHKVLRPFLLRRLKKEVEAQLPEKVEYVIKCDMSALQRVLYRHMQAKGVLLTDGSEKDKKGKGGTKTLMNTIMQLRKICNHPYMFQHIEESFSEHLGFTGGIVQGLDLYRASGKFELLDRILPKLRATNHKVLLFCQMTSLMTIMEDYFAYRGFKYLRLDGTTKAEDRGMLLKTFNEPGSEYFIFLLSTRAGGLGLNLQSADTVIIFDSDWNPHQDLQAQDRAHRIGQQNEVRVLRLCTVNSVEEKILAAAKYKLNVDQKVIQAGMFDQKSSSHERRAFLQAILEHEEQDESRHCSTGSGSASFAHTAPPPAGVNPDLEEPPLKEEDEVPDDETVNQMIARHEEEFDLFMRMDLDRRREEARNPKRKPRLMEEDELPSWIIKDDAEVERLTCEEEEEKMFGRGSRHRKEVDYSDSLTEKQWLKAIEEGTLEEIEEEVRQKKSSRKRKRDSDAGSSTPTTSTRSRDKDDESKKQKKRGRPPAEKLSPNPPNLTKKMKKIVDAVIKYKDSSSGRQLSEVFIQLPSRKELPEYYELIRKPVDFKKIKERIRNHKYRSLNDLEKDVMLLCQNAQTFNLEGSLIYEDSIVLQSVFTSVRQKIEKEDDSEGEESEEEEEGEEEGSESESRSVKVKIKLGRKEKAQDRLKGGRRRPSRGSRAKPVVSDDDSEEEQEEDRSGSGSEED", "assay": "SMARCA4 HiBiT degradation assay in HeLa cells", "format": "cell-based", "conditions": "18 hours, highest concentration 10 μM", "method_in_brief": "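HeLa monoclonal cells with HiBiT knocked into SMARCA4 were seeded at 2500 cells/well, dosed with compound and incubated 18 hours at 37° C. HiBiT signal reported remaining SMARCA4 protein, and values came from curve fitting.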"}}, "data": [{"smiles": "O=C(/C=C/N1C[C@H]2C[C@@H]1CN2c1ccccn1)c1ccccc1O", "note": "[PFI-3]", "values": [{"measurement": "effects on cell proliferation inhibition", "setting": "[1]", "result": "none to minor effects"}]}, {"smiles": "CC[C@@]12CNc3nnc(-c4cccc(F)c4O)cc3N1C[C@H](Oc1cc(C)c(CN3CCC(c4ccc5c(c4)C(=O)N(C4CCC(=O)NC4=O)C5)CC3)cn1)C2", "note": "(stereo partly drawn) [Example 106, 3-(6-(1-((6-(((6aR,8R)-6a-ethyl-2-(3-fluoro-2-hydroxyphenyl)-5,6,6a,7,8,9-hexahydropyrrolo[1′,2′:4,5]pyrazino[2,3-c]pyridazin-8-yl)oxy)-4-methylpyridin-3-yl)methyl)piperidin-4-yl)-1-oxoisoindolin-2-yl)piperidine-2,6-dione]", "values": [{"measurement": "DC50", "setting": "SMARCA2", "result": "< 100", "unit": "nM"}, {"measurement": "Dmax", "setting": "SMARCA2", "result": "> 75", "unit": "%"}, {"measurement": "DC50", "setting": "SMARCA4", "result": "100 to 1000", "unit": "nM"}, {"measurement": "Dmax", "setting": "SMARCA4", "result": "< 50", "unit": "%"}]}, {"smiles": "Cc1cc(CN2CCN(c3ccc4c(c3)C(=O)N([C@H]3CCC(=O)NC3=O)C4)CC2)cnc1O[C@H]1CN2c3cc(-c4cccc(F)c4O)nnc3NC[C@]2(C)C1", "note": "[Example 83, (S)-3-(6-(4-((6-(((6aS,8R)-2-(3-fluoro-2-hydroxyphenyl)-6a-methyl-5,6,6a,7,8,9-hexahydropyrrolo[1′,2′:4,5]pyrazino[2,3-c]pyridazin-8-yl)oxy)-5-methylpyridin-3-yl)methyl)piperazin-1-yl)-1-oxoisoindolin-2-yl)piperidine-2,6-dione]", "values": [{"measurement": "DC50", "setting": "SMARCA2", "result": "< 100", "unit": "nM"}, {"measurement": "Dmax", "setting": "SMARCA2", "result": "> 75", "unit": "%"}, {"measurement": "DC50", "setting": "SMARCA4", "result": "< 100", "unit": "nM"}, {"measurement": "Dmax", "setting": "SMARCA4", "result": "> 75", "unit": "%"}]}, {"smiles": "CC[C@]12CNc3nnc(-c4cccc(F)c4O)cc3N1C[C@H](Oc1cnc(CN3CCC(c4ccc5c(c4)C(=O)N([C@H]4CCC(=O)NC4=O)C5)CC3)cn1)C2", "note": "[Example 103, (S)-3-(6-(1-((5-(((6aS,8R)-6a-ethyl-2-(3-fluoro-2-hydroxyphenyl)-5,6,6a,7,8,9-hexahydropyrrolo[1′,2′:4,5]pyrazino[2,3-c]pyridazin-8-yl)oxy)pyrazin-2-yl)methyl)piperidin-4-yl)-1-oxoisoindolin-2-yl)piperidine-2,6-dione]", "values": [{"measurement": "DC50", "setting": "SMARCA2", "result": "< 100", "unit": "nM"}, {"measurement": "Dmax", "setting": "SMARCA2", "result": "> 75", "unit": "%"}, {"measurement": "DC50", "setting": "SMARCA4", "result": "< 100", "unit": "nM"}, {"measurement": "Dmax", "setting": "SMARCA4", "result": "50 to 75", "unit": "%"}]}, {"smiles": "O=C1CCC(N2Cc3ccc(N4CCN(Cc5ccc(O[C@@H]6C[C@@H]7CNc8nnc(-c9cccc(F)c9O)cc8N7C6)cc5)CC4)cc3C2=O)C(=O)N1", "note": "(stereo partly drawn) [Example 5, 3-(6-(4-(4-(((6aR,8R)-2-(3-fluoro-2-hydroxyphenyl)-5,6,6a,7,8,9-hexahydropyrrolo[1′,2′:4,5]pyrazino[2,3-c]pyridazin-8-yl)oxy)benzyl)piperazin-1-yl)-1-oxoisoindolin-2-yl)piperidine-2,6-dione]", "values": [{"measurement": "DC50", "setting": "SMARCA2", "result": "< 100", "unit": "nM"}, {"measurement": "Dmax", "setting": "SMARCA2", "result": "> 75", "unit": "%"}, {"measurement": "DC50", "setting": "SMARCA4", "result": "< 100", "unit": "nM"}, {"measurement": "Dmax", "setting": "SMARCA4", "result": "> 75", "unit": "%"}]}, {"smiles": "Cc1c(CN2CCN(c3ccc4c(c3)C(=O)N(C3CCC(=O)NC3=O)C4)CC2)ccc(O[C@@H]2C[C@@H]3CNc4nnc(-c5cc(F)cc(F)c5O)cc4N3C2)c1C", "note": "(stereo partly drawn) [Example 18, 3-(6-(4-(4-(((6aR,8R)-2-(3,5-difluoro-2-hydroxyphenyl)-5,6,6a,7,8,9-hexahydropyrrolo[1′,2′:4,5]pyrazino[2,3-c]pyridazin-8-yl)oxy)-2,3-dimethylbenzyl)piperazin-1-yl)-1-oxoisoindolin-2-yl)piperidine-2,6-dione]", "values": [{"measurement": "DC50", "setting": "SMARCA2", "result": "< 100", "unit": "nM"}, {"measurement": "Dmax", "setting": "SMARCA2", "result": "> 75", "unit": "%"}, {"measurement": "DC50", "setting": "SMARCA4", "result": "< 100", "unit": "nM"}, {"measurement": "Dmax", "setting": "SMARCA4", "result": "> 75", "unit": "%"}]}, {"smiles": "Cc1cc(O[C@H]2CN3c4cc(-c5cccc(F)c5O)nnc4NC[C@]3(C)C2)cnc1CN1CCN(c2ccc3c(c2)C(=O)N([C@H]2CCC(=O)NC2=O)C3)CC1", "note": "[Example 82, (S)-3-(6-(4-((5-(((6aS,8R)-2-(3-fluoro-2-hydroxyphenyl)-6a-methyl-5,6,6a,7,8,9-hexahydropyrrolo[1′,2′:4,5]pyrazino[2,3-c]pyridazin-8-yl)oxy)-3-methylpyridin-2-yl)methyl)piperazin-1-yl)-1-oxoisoindolin-2-yl)piperidine-2,6-dione]", "values": [{"measurement": "DC50", "setting": "SMARCA2", "result": "< 100", "unit": "nM"}, {"measurement": "Dmax", "setting": "SMARCA2", "result": "> 75", "unit": "%"}, {"measurement": "DC50", "setting": "SMARCA4", "result": "< 100", "unit": "nM"}, {"measurement": "Dmax", "setting": "SMARCA4", "result": "50 to 75", "unit": "%"}]}, {"smiles": "Cc1c(O[C@H]2CN3c4cc(-c5cccc(F)c5O)nnc4NC[C@@]3(C(F)F)C2)cnc(CN2CCN(c3ccc4c(c3)C(=O)N([C@H]3CCC(=O)NC3=O)C4)CC2)c1F", "note": "[Example 45, (S)-3-(6-(4-((5-(((6aR,8R)-6a-(difluoromethyl)-2-(3-fluoro-2-hydroxyphenyl)-5,6,6a,7,8,9-hexahydropyrrolo[1′,2′:4,5]pyrazino[2,3-c]pyridazin-8-yl)oxy)-3-fluoro-4-methylpyridin-2-yl)methyl)piperazin-t-yl)-1-oxoisoindolin-2-yl)piperidine-2,6-dione]", "values": [{"measurement": "DC50", "setting": "SMARCA2", "result": "< 100", "unit": "nM"}, {"measurement": "Dmax", "setting": "SMARCA2", "result": "50 to 75", "unit": "%"}, {"measurement": "DC50", "setting": "SMARCA4", "result": "> 1000", "unit": "nM"}, {"measurement": "Dmax", "setting": "SMARCA4", "result": "< 50", "unit": "%"}]}, {"smiles": "O=C1CCC(N2Cc3ccc(N4CCN(Cc5cnc(S[C@@H]6C[C@@H]7CNc8nnc(-c9cc(F)cc(F)c9O)cc8N7C6)nc5)CC4)cc3C2=O)C(=O)N1", "note": "(stereo partly drawn) [Example 26, 3-(6-(4-((2-(((6aR,8R)-2-(3,5-difluoro-2-hydroxyphenyl)-5,6,6a,7,8,9-hexa-hydropyrrolo[1′,2′:4,5]pyrazino[2,3-c]pyridazin-8-yl)thio)pyrimidin-5-yl)methyl)piperazin-1-yl)-1-oxoisoindolin-2-yl)piperidine-2,6-dione]", "values": [{"measurement": "DC50", "setting": "SMARCA2", "result": "< 100", "unit": "nM"}, {"measurement": "Dmax", "setting": "SMARCA2", "result": "> 75", "unit": "%"}, {"measurement": "DC50", "setting": "SMARCA4", "result": "< 100", "unit": "nM"}, {"measurement": "Dmax", "setting": "SMARCA4", "result": "> 75", "unit": "%"}]}, {"smiles": "Cc1cc(CN2CCN(c3ccc4c(c3)C(=O)N(C3CCC(=O)NC3=O)C4)CC2)cnc1O[C@@H]1C[C@@H]2CNc3nnc(-c4cc(F)cc(F)c4O)cc3N2C1", "note": "(stereo partly drawn) [Example 31, 3-(6-(4-((6-(((6aR,8R)-2-(3,5-difluoro-2-hydroxyphenyl)-5,6,6a,7,8,9-hexahydropyrrolo[1′,2′:4,5]pyrazino[2,3-c]pyridazin-8-yl)oxy)-5-methylpyridin-3-yl)methyl)piperazin-1-yl)-1-oxoisoindolin-2-yl)piperidine-2,6-dione]", "values": [{"measurement": "DC50", "setting": "SMARCA2", "result": "< 100", "unit": "nM"}, {"measurement": "Dmax", "setting": "SMARCA2", "result": "> 75", "unit": "%"}, {"measurement": "DC50", "setting": "SMARCA4", "result": "< 100", "unit": "nM"}, {"measurement": "Dmax", "setting": "SMARCA4", "result": "> 75", "unit": "%"}]}, {"smiles": "O=C1CCC(N2Cc3ccc(N4CCN(Cc5cnc(O[C@H]6CN7c8cc(-c9cccc(F)c9O)nnc8NC[C@@]7(CF)C6)c(F)c5)CC4)cc3C2=O)C(=O)N1", "note": "(stereo partly drawn) [Example 70, 3-(6-(4-((5-fluoro-6-(((6aR,8R)-2-(3-fluoro-2-hydroxyphenyl)-6a-(fluoromethyl)-5,6,6a,7,8,9-hexahydropyrrolo[1′,2′:4,5]pyrazino[2,3-c]pyridazin-8-yl)oxy)pyridin-3-yl)methyl)piperazin-1-yl)-1-oxoisoindolin-2-yl)piperidine-2,6-dione]", "values": [{"measurement": "DC50", "setting": "SMARCA2", "result": "< 100", "unit": "nM"}, {"measurement": "Dmax", "setting": "SMARCA2", "result": "> 75", "unit": "%"}, {"measurement": "DC50", "setting": "SMARCA4", "result": "< 100", "unit": "nM"}, {"measurement": "Dmax", "setting": "SMARCA4", "result": "50 to 75", "unit": "%"}]}]}
